Laboratory results: US8546389B2 (priority 2010, dated 2013)

What was measured:
[1] = target: 1b (BK) NS5bΔ21 (Hepatitis C virus genotype 1b (isolate BK) (HCV), UniProt P26663); assay: HCV polymerase inhibition assay, genotype 1b; assay type: biochemical, HCV genotype 1b (BK); conditions: 1b (BK) NS5bΔ21, 33P-GTP incorporation; read-out: 1b polymerase IC50 (range class)
Outline: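 Both genotype 1b and 3a enzymes assayed identically: ^33P-GTP incorporation on poly(rC) template, GTP at Km, 50 nM NS5bΔ21, pH 7.5 Tris with 5 mM MgCl2 and MnCl2, 1 h reaction ended by cold EDTA. Filter-bound label counted; IC50 fitted by non-linear regression across three-fold dilution series.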

[2] = tested on: genotype 1b (Con 1) subgenomic replicon cell line; assay: HCV replicon assay, genotype 1b (Renilla luciferase); assay type: cell-based, HCV genotype 1b (Con 1); conditions: Hepatitis C virus; genotype 1b replicon, 72 hours, luciferase; read-out: genotype 1b EC50 (range class)
Outline: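 Subgenomic replicon cells expressing Renilla luciferase (1b Con1; 1a and 2a lines by the same method) seeded at 7000 cells/well (5000 for 2a) without G418, exposed to 3-fold compound dilutions for 72 h at 37 °C. Luciferase activity measured; EC50 by non-linear regression.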

Sequence of 1b (BK) NS5bΔ21 (P26663 2420-2989): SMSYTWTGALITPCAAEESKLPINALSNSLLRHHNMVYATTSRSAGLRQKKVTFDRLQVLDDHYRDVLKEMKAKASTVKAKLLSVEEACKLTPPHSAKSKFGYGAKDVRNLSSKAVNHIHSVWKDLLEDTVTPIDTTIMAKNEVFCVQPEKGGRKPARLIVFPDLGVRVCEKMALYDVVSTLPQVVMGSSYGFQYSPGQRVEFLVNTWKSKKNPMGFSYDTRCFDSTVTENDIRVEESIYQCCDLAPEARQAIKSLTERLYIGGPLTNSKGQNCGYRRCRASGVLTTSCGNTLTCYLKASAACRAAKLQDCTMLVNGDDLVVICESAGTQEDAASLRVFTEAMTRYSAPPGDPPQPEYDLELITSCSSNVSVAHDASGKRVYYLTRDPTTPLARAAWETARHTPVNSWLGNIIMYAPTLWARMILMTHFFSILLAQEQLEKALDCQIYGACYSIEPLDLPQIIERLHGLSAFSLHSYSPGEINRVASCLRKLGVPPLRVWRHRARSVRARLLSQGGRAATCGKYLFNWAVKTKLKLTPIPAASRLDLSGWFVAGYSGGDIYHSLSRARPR

| Compound | IC50 [1] [nM] | EC50 [2] [nM] |
| --- | --- | --- |
| CCCNC(=O)CCN(c1cc2nn(-c3ccc(Br)cc3)c(C(=O)NC)c2cc1C1CC1)S(C)(=O)=O [Compound 165] | 1000 to 9990 | 1000 to 9990 |
| CNC(=O)c1c2cc(C3CC3)c(N(CCCNC(=O)c3cn(C)cn3)S(C)(=O)=O)cc2nn1-c1ccc(Br)cc1 [Compound 167] | < 990 | < 990 |
| CNC(=O)c1c2cc(C3CC3)c(N(CCCNC(=O)c3cnoc3)S(C)(=O)=O)cc2nn1-c1ccc(Br)cc1 [Compound 168] | < 990 | < 990 |
| CNC(=O)c1c2cc(C3CC3)c(N(CCCN3C(=O)c4ccccc4C3=O)S(C)(=O)=O)cc2nn1-c1ccc(Br)cc1 [Compound 169] | < 990 | < 990 |
| CCN(c1cc2nn(-c3ccc(F)cc3)c(C(=O)NC)c2cc1OCC#N)S(C)(=O)=O [Compound 170] | < 990 | < 990 |
| CNC(=O)c1c2cc(C3CC3)c(N(CCCNC(=O)c3cnoc3C)S(C)(=O)=O)cc2nn1-c1ccc(Br)cc1 [Compound 173] | < 990 | < 990 |
| CNC(=O)c1c2cc(C3CC3)c(N(CCCNC(=O)c3ccnnc3)S(C)(=O)=O)cc2nn1-c1ccc(Br)cc1 [Compound 178] | < 990 | 1000 to 9990 |
| CNC(=O)c1c2cc(C3CC3)c(N(CCCNC(=O)c3ccco3)S(C)(=O)=O)cc2nn1-c1ccc(Br)cc1 [Compound 181] | < 990 | < 990 |
| CNC(=O)c1c2cc(C3CC3)c(N(CCCNC(=O)C3CC3)S(C)(=O)=O)cc2nn1-c1ccc(Br)cc1 [Compound 183] | < 990 | < 990 |
| CCNC(=O)CCCN(c1cc2nn(-c3ccc(Br)cc3)c(C(=O)NC)c2cc1C1CC1)S(C)(=O)=O [Compound 184] | < 990 | 1000 to 9990 |
| CNC(=O)c1c2cc(C3CC3)c(N(CCCNC(=O)CCN(C)C)S(C)(=O)=O)cc2nn1-c1ccc(Br)cc1 [Compound 185] | 1000 to 9990 | 1000 to 9990 |
| CNC(=O)c1c2cc(C3CC3)c(N(CCCNC(=O)c3ccc(N4CCOCC4)nc3)S(C)(=O)=O)cc2nn1-c1ccc(Br)cc1 [Compound 186] | < 990 | < 990 |
| CNC(=O)c1c2cc(C3CC3)c(N(CCCNC(=O)[C@H]3CCCC[C@@H]3C(=O)O)S(C)(=O)=O)cc2nn1-c1ccc(Br)cc1 [Compound 187] | < 990 | 1000 to 9990 |
| CNC(=O)c1c2cc(C3CC3)c(N(CCCNC(=O)[C@H]3CC=CC[C@H]3C(=O)O)S(C)(=O)=O)cc2nn1-c1ccc(Br)cc1 [Compound 188] | < 990 | < 990 |
| C=C(C)c1ccc(-n2nc3cc(N(CC)S(C)(=O)=O)c(C4CC4)cc3c2C(=O)NC)cc1 [Compound 192] | 1000 to 9990 | < 990 |
| CCS(=O)(=O)NC(=O)CCCN(c1cc2nn(-c3ccc(Br)cc3)c(C(=O)NC)c2cc1C1CC1)S(C)(=O)=O [Compound 193] | < 990 | 1000 to 9990 |
| CNC(=O)c1c2cc(C3CC3)c(N(CCCN3CCCC3=O)S(C)(=O)=O)cc2nn1-c1ccc(Br)cc1 [Compound 194] | < 990 | < 990 |
| CNC(=O)c1c2cc(C3CC3)c(N(CCCC(=O)NS(=O)(=O)C(F)(F)F)S(C)(=O)=O)cc2nn1-c1ccc(Br)cc1 [Compound 196] | < 990 | 1000 to 9990 |
| CNC(=O)c1c2cc(C3CC3)c(N(CCCNC(=O)c3ccccc3)S(C)(=O)=O)cc2nn1-c1ccc(Cl)cc1 [Compound 197] | < 990 | < 990 |
| CNC(=O)c1c2cc(C3CC3)c(N(CCCC(=O)NS(=O)(=O)N(C)C)S(C)(=O)=O)cc2nn1-c1ccc(Br)cc1 [Compound 198] | < 990 | 1000 to 9990 |
| CNC(=O)c1c2cc(C3CC3)c(N(CCCN(C)C)S(C)(=O)=O)cc2nn1-c1ccc(Cl)cc1 [Compound 199] | 1000 to 9990 | < 990 |
| CNC(=O)c1c2cc(C3CC3)c(N(CCCN3CCOCC3)S(C)(=O)=O)cc2nn1-c1ccc(Cl)cc1 [Compound 201] | < 990 | < 990 |
| CNC(=O)c1c2cc(C3CC3)c(N(CC3COC(C)(C)OC3)S(C)(=O)=O)cc2nn1-c1ccc(Br)cc1 [Compound 202] | < 990 | < 990 |
| CNC(=O)c1c2cc(C3CC3)c(N(CC(CO)CO)S(C)(=O)=O)cc2nn1-c1ccc(Br)cc1 [Compound 203] | 10000 to 50000 | 10000 to 50000 |
| CNC(=O)c1c2cc(C3CC3)c(N(CCCNC(=O)[C@H]3C[C@H]3C(=O)OC)S(C)(=O)=O)cc2nn1-c1ccc(Br)cc1 [Compound 204] | < 990 | < 990 |
| CNC(=O)c1c2cc(C3CC3)c(N(CCCNC(=O)[C@H]3COCCN3C)S(C)(=O)=O)cc2nn1-c1ccc(Cl)cc1 [Compound 205] | < 990 | < 990 |
| CNC(=O)c1c2cc(C3CC3)c(N(CCCO)S(C)(=O)=O)cc2nn1-c1ccc(C)c(F)c1 [Compound 206] | < 990 | < 990 |

| Compound | IC50 [1] [nM] | EC50 [2] [nM] |
| --- | --- | --- |
| CNC(=O)c1c2cc(C3CC3)c(N(CCCC(=O)OC)S(C)(=O)=O)cc2nn1-c1ccc(Cl)cc1 [Compound 207] | < 990 | 1000 to 9990 |
| CNC(=O)c1c2cc(C3CC3)c(N(CCCC(=O)O)S(C)(=O)=O)cc2nn1-c1ccc(Cl)cc1 [Compound 208] | < 990 | 10000 to 50000 |
| CNC(=O)c1c2cc(C3CC3)c(N(CCCN3C(=O)[C@H]4CCCC[C@H]4C3=O)S(C)(=O)=O)cc2nn1-c1ccc(Br)cc1 [Compound 209] | < 990 | < 990 |
| CNC(=O)c1c2cc(C3CC3)c(N(CCCNCc3ccc(OC)cc3)S(C)(=O)=O)cc2nn1-c1ccc(Br)cc1 [Compound 210] | 1000 to 9990 | 1000 to 9990 |
| CNC(=O)c1c2cc(C3CC3)c(N(CCCNCc3cccnc3)S(C)(=O)=O)cc2nn1-c1ccc(Br)cc1 [Compound 211] | < 990 | 1000 to 9990 |
| CCOC(=O)C(CCCN(c1cc2nn(-c3ccc(Br)cc3)c(C(=O)NC)c2cc1C1CC1)S(C)(=O)=O)C(=O)OCC [Compound 212] | < 990 | < 990 |
| CNC(=O)c1c2cc(C3CC3)c(N(CCCOC)S(C)(=O)=O)cc2nn1-c1ccc(Br)cc1 [Compound 213] | < 990 | < 990 |
| CNC(=O)c1c2cc(C3CC3)c(N(CCCO)S(C)(=O)=O)cc2nn1-c1ccc(C)cc1 [Compound 214] | < 990 | < 990 |
| CNC(=O)c1c2cc(C3CC3)c(N(CCCNC(=O)[C@H]3CCC[C@H]3C(=O)OC)S(C)(=O)=O)cc2nn1-c1ccc(Br)cc1 [Compound 215] | < 990 | < 990 |
| CNC(=O)c1c2cc(C3CC3)c(N(CCCC(=O)NS(=O)(=O)C(F)(F)F)S(C)(=O)=O)cc2nn1-c1ccc(Cl)cc1 [Compound 217] | < 990 | 1000 to 9990 |
| CNC(=O)c1c2cc(C3CC3)c(N(CCCNC(=O)[C@H]3C[C@H]3C(=O)O)S(C)(=O)=O)cc2nn1-c1ccc(Br)cc1 [Compound 218] | < 990 | 1000 to 9990 |
| CNC(=O)c1c2cc(C3CC3)c(N(CCCNC(=O)c3ccn(C)c(=O)c3)S(C)(=O)=O)cc2nn1-c1ccc(Br)cc1 [Compound 219] | < 990 | 1000 to 9990 |
| CNC(=O)c1c2cc(C3CC3)c(N(CCCC(=O)OC(C)C)S(C)(=O)=O)cc2nn1-c1ccc(Br)cc1 [Compound 220] | < 990 | < 990 |
| CCN(C(=O)c1ccco1)c1cc2nn(-c3ccc(Br)cc3)c(C(=O)NC)c2cc1C1CC1 [Compound 221] | 10000 to 50000 | 1000 to 9990 |
| CNC(=O)c1c2cc(C3CC3)c(N(CCCO)S(C)(=O)=O)cc2nn1-c1ccc(Br)c(F)c1 [Compound 223] | < 990 | < 990 |
| CNC(=O)c1c2cc(C3CC3)c(N(CCCC(C(=O)O)C(=O)O)S(C)(=O)=O)cc2nn1-c1ccc(Br)cc1 [Compound 224] | < 990 | 1000 to 9990 |
| CCOC(=O)CCCN(CC)c1cc2nn(-c3ccc(Br)cc3)c(C(=O)NC)c2cc1C1CC1 [Compound 225] | 1000 to 9990 | < 990 |
| CNC(=O)c1c2cc(C3CC3)c(-c3c(C)noc3C)cc2nn1-c1ccc(C)cc1 [Compound 226] | 10000 to 50000 | 1000 to 9990 |
| CNC(=O)c1c2cc(C3CC3)c(N(CCCC(=O)O)S(C)(=O)=O)cc2nn1-c1ccc(C)cc1 [Compound 229] | < 990 | 10000 to 50000 |
| CCOC(=O)CCCN(c1cc2nn(-c3ccc(C)cc3)c(C(=O)NC)c2cc1C1CC1)S(C)(=O)=O [Compound 230] | < 990 | < 990 |
| CNC(=O)c1c2cc(C3CC3)c(N(CC3CC3)S(C)(=O)=O)cc2nn1-c1ccc(Br)cc1 [Compound 231] | < 990 | < 990 |
| CNC(=O)c1c2cc(C3CC3)c(N(CCOC)S(C)(=O)=O)cc2nn1-c1ccc(Br)cc1 [Compound 232] | 1000 to 9990 | < 990 |
| CNC(=O)c1c2cc(C3CC3)c(N(CCC(F)(F)F)S(C)(=O)=O)cc2nn1-c1ccc(Br)cc1 [Compound 233] | < 990 | < 990 |
| CCN(c1cc2nn(-c3ccc(Br)c(F)c3)c(C(=O)NC)c2cc1C1CC1)S(C)(=O)=O [Compound 236] | < 990 | < 990 |
| CNC(=O)c1c2cc(C3CC3)c(N(C)S(C)(=O)=O)cc2nn1-c1ccc(Cl)cc1 [Compound 237] | < 990 | < 990 |
| CNC(=O)c1c2cc(C3CC3)c(N(CCC(CO)CO)S(C)(=O)=O)cc2nn1-c1ccc(Cl)cc1 [Compound 238] | < 990 | 1000 to 9990 |
